Experimental data as given in BindingDB's records for doi:10.1021/jm00098a008 (University of Minnesota, 1992).

Biological target: Alcohol dehydrogenase 1 (Saccharomyces cerevisiae) (UniProt P00330)
Assay: Inhibitory activity against yeast alcohol dehydrogenase

Sequence of Alcohol dehydrogenase 1 (Saccharomyces cerevisiae) (P00330 whole entry, looked up): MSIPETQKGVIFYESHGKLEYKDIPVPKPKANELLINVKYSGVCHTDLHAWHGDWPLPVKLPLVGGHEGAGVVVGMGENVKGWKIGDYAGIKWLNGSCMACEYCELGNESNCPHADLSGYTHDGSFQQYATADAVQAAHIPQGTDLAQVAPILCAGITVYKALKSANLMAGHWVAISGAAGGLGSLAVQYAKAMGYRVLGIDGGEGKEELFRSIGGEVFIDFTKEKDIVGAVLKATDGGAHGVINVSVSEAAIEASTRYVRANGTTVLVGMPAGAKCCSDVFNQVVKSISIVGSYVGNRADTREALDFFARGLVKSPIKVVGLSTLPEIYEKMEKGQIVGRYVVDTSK

| IC50 [µM] | Structure (SMILES) |
| --- | --- |
| 25 | N#CN(OC(=O)c1ccccc1)C(=O)c1ccccc1 |
| 39 | CC(=O)ON(C(C)=O)S(=O)(=O)c1ccc(Cl)cc1 |
